This note sets out measurements from paper PMC7769672, “Skin-Related Properties and Constituents from the Aerial Parts Extract of Persicaria senticosa” (Oxidative Medicine and Cellular Longevity, 2020).

The target in one experiment is elastase (Sus scrofa, UniProt P00772). The experiment is described as follows: Elastase inhibition assay. In kind it is biochemical. As for the experimental part:
The reaction was carried out in 0.5 mM Tris buffer (pH 8.5) containing 1 mg/mL N-succinyl-(Ala)3-p-nitroanilide and 0.6 unit/mL elastase. The reaction mixture was incubated at 25°C for 10 min. The test samples were assayed for elastase inhibition by measuring its effect on elastase activity using an ELISA reader at 405 nm. Ursolic acid was used as a positive control, and the IC50 value of the sample was determined.

The test system of experiment [1] is RAW 264.7 cells. The experiment is described as follows: NO assay (nitrite by Griess reagent in LPS-stimulated cells). In kind it is cell-based, murine. As for the experimental part:
RAW 264.7 cells were seeded in 96-well plates (5 × 10^4 cells/well) and were treated with sample for 1 h prior to LPS (1 μg/mL) stimulation for 24 h. The negative control was treated with serum-free media. The amount of nitrite, a stable metabolite of NO, was measured by using Griess reagent (1% sulfanilamide and 0.1% naphthylethylenediamine dihydrochloride in 2.5% phosphoric acid). Absorbance was subsequently measured at 540 nm using an ELISA reader. The quantity of nitrite was determined from a standard curve for sodium nitrite.
Background: Nitrite, measured by Griess reagent, commonly stands in for NO production.

In experiment [2] the test system is RAW 264.7 cells. Put plainly: Cell cytotoxicity assay (MTT). The conditions noted are these: Mus musculus, RAW264.7. In kind it is cell-based, murine. As for the experimental part: RAW 264.7 cells were plated at a density of 5 × 10^4 cells/well in 96-well plates. Cells were treated with samples for 1 h prior to LPS (1 μg/mL) stimulation for 24 h. MTT (5 mg/mL in PBS) was added to each well and incubated for 2 hr. The medium was removed from the wells by aspiration, DMSO was added to each well, and the plate was shaken. The absorbance of each well was measured at a wavelength of 540 nm using an ELISA reader. Data are presented as the mean ± standard deviation of three replicates.

Experiment [3] in a line: DPPH radical scavenging activity assay. Particulars: for IC50: Table 3, isolated compounds; for DPPH radical scavenging activity (in words): Figure 4. As to the method:
DPPH radical scavenging activity was measured by using the method described by Blois and Ozgen et al.. DPPH solution dissolved in methanol was added to the sample, which was diluted to the required concentration, and the reaction was carried out at room temperature for 30 min. Absorbance was measured at 517 nm using an ELISA reader. The antioxidant butylated hydroxyanisole (BHA) was used as a positive control, and the IC50 value of the sample was determined.
(The DPPH test is a chemical assay of radical scavenging.)

For the next experiment, the target named is mushroom tyrosinase. Put plainly: Tyrosinase inhibition assay. In kind it is biochemical. Particulars: for IC50: Table 3, isolated compounds. As for the experimental part: Tyrosinase inhibitory activity was measured by using the method described by Yagi et al.. The reaction was carried out in 0.1 M potassium phosphate buffer (pH 6.5) containing 1.5 mM L-tyrosine and 1250 units/mL mushroom tyrosinase. The reaction mixture was incubated at 37°C for 20 min. The test samples were assayed for tyrosinase inhibition by measuring its effect on tyrosinase activity using SpectraMax 190PC microplate ELISA reader at 490 nm.

Experiment [4] can be described thus: ABTS radical scavenging activity. As for the experimental part:
ABTS radical scavenging activity was measured by using a previously described method. ABTS+ was formed by mixing 7 mM ABTS solution and 2.45 mM potassium persulfate (K2S2O8) solution with ABTS: K2S2O8 (2 : 1 ratio) for 12–16 h to form a cation (ABTS^+). The absorbance was measured at 734 nm using an ELISA reader. BHA, an antioxidant, was used as the positive control.

[5] abbreviates: Table 3, isolated compounds, read-out: Elastase inhibition assay IC50.
[6] abbreviates: Mus musculus, RAW264.7, Table 3, isolated compounds, read-out: NO assay IC50.
Where [7] appears, read: Table 3, isolated compounds, read-out: MTT assay IC50.

Values joined by “and” are separate entries in the source; they are usually repeats but may differ in a detail not shown here. Equal entries are not always repeated. Where two headings read alike, the source gives them in different places. Some results are limits rather than exact numbers.

elastase, sequence (P00772 27-266): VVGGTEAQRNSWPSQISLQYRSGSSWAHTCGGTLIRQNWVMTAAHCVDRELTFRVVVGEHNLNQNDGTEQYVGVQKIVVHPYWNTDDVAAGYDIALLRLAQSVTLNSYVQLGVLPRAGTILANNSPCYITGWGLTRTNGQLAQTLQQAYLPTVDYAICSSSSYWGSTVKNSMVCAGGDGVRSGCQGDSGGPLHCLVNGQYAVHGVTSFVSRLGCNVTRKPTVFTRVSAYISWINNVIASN

As for `CC1(C)C[C@H](O)C[C@@]2(C)OC(=O)C=C12` [Compound 1, loliolide], the IC50 is greater than 1000 µM at elastase (setting [5]); greater than 100 µM in the experiment on RAW 264.7 cells [1] (setting [6]); greater than 100 µM with RAW 264.7 cells [2] (setting [7]); greater than 1000 µM in experiment [3]; greater than 100 µM at mushroom tyrosinase.

For the compound `COC(=O)C1OC(Oc2c(-c3ccc(O)c(O)c3)oc3cc(O)cc(O)c3c2=O)C(O)C(O)C1O` (stereo not drawn) [Compound 6, quercetin-3-(6-methylglucuronide)], the IC50 was greater than 1000 µM on elastase (setting [5]); greater than 100 µM in the experiment with RAW 264.7 cells [1] (setting [6]); greater than 100 µM in the experiment with RAW 264.7 cells [2] (setting [7]); greater than 1000 µM in experiment [3]; greater than 100 µM on mushroom tyrosinase.

For `O=C(O)C1OC(Oc2c(-c3ccc(O)c(O)c3)oc3cc(O)cc(O)c3c2=O)C(O)C(O)C1O` (stereo not drawn) [Compound 3, quercetin-3-O-glucuronide], the IC50 was greater than 1000 µM on elastase (setting [5]); greater than 100 µM with RAW 264.7 cells [1] (setting [6]); greater than 100 µM with RAW 264.7 cells [2] (setting [7]); 31.2 µM in experiment [3]; 31.2 ± 0.47 µM in experiment [3] (listed as Comp. 3); greater than 100 µM against mushroom tyrosinase.

Take `COc1ccc(/C=C/C(=O)OC(C(=O)O)C(O)C(=O)O)cc1O` (stereo not drawn) [Compound 4, 4-methoxy caftraric acid]: the IC50 on elastase (setting [5]) was greater than 1000 µM; in the experiment with RAW 264.7 cells [1] (setting [6]), greater than 100 µM; in the experiment on RAW 264.7 cells [2] (setting [7]), 84.6 ± 9.85 µM; in experiment [3], greater than 1000 µM; at mushroom tyrosinase it was greater than 100 µM.

`COC(=O)C1OC(Oc2c(-c3ccc(O)cc3)oc3cc(O)cc(O)c3c2=O)C(O)C(O)C1O` (stereo not drawn) [Compound 5, kaempferol-3-(6-methylglucuronide)]: the IC50 at elastase (setting [5]) is greater than 1000 µM; with RAW 264.7 cells [1] (setting [6]) it was greater than 100 µM; in the experiment with RAW 264.7 cells [2] (setting [7]), greater than 100 µM; in experiment [3], 37 µM; in experiment [3] (listed as Comp. 5) it was 36.99 ± 0.16 µM; at mushroom tyrosinase, greater than 100 µM. Further, in experiment [3], the “DPPH radical scavenging activity (in words)” value is “excellent antioxidant activity”.

For `C[C@H]1[C@H](C)CC[C@]2(C(=O)O)CC[C@]3(C)C(=CC[C@@H]4[C@@]5(C)CC[C@H](O)C(C)(C)[C@@H]5CC[C@]43C)[C@H]12` [Ursolic acid, reference compound], the IC50 on elastase (Table 1, methanol extracts, read-out: Anti-wrinkle Elastase assay (IC50)) was 116 µM; on elastase (Table 2, fractions, unit inferred, read-out: Antiwrinkle Elastase assay) it was 85.3 µM; on elastase (setting [5]) it was 86.3 µM.

In the case of `[H]/N=C(/NC)NCCC[C@H](N)C(=O)O` [L-NMMA, reference compound], the IC50 was 37.6 µM with RAW 264.7 cells [1] (Mus musculus, RAW264.7, Table 2 positive control, read-out: Anti-inflammatory NO, positive control); 36.3 µM in the experiment with RAW 264.7 cells [1] (Mus musculus, RAW264.7, Table 1 positive control, read-out: Anti-inflammatory NO (IC50), positive control); 14.6 µM in the experiment with RAW 264.7 cells [1] (setting [6]); greater than 100 µM in the experiment on RAW 264.7 cells [2] (Table 1 positive control, read-out: Anti-inflammatory MTT, positive control); greater than 100 µM in the experiment on RAW 264.7 cells [2] (setting [7]).

With `OC[C@H]1O[C@@H](Oc2ccc(O)cc2)[C@H](O)[C@@H](O)[C@@H]1O` [Arbutin, reference compound], the “Whitening Tyrosinase assay (IC50)” value at mushroom tyrosinase (Table 1, methanol extracts, L-tyrosine substrate) was “Arbutin 135.0 ± 19.9 μg/mL”.

In the case of `O=c1c(O)c(-c2ccc(O)c(O)c2)oc2cc(O)cc(O)c12` [Compound 7, quercetin], the IC50 with RAW 264.7 cells [1] (setting [6]) is 29.7 µM; in the experiment with RAW 264.7 cells [1] (Table 3, isolated compounds, listed as Comp. 7, read-out: NO assay IC50), 29.7 ± 7.07 µM; with RAW 264.7 cells [2] (setting [7]) it was greater than 100 µM; in experiment [3] it was 22.7 µM; in experiment [3] (listed as Comp. 7), 22.7 ± 0.53 µM.

In the case of `COc1ccc(O)c(C(C)(C)C)c1` [BHA, butylated hydroxyanisole, reference compound], the “Antioxidant DPPH (IC50)” value in experiment [3] (Table 1, methanol extracts, 30 min, 517 nm) is reported as “BHA 15.6 ± 0.2 μg/mL”. Moreover, the “Antioxidant DPPH” value in experiment [3] (Table 2, fractions) is on record as “BHA 14.58 ± 0.06 μg/mL”. Besides, in experiment [3], the IC50 worked out at 272 µM. Moreover, the “Antioxidant ABTS (IC50)” value in experiment [4] (Table 1, methanol extracts, 734 nm) was “BHA 2.9 ± 0.1 μg/mL”. The “Antioxidant ABTS” value in experiment [4] (Table 2, fractions) is recorded as “BHA 4.03 ± 0.05 μg/mL”.

As for `O=c1c(O[C@@H]2O[C@H](CO)[C@@H](O)[C@H](O)[C@H]2O)c(-c2ccc(O)c(O)c2)oc2cc(O)cc(O)c12` [Compound 2, quercetin-3-O-glucoside], the IC50 on elastase (setting [5]) is greater than 1000 µM; in the experiment on RAW 264.7 cells [1] (setting [6]), greater than 100 µM; in the experiment on RAW 264.7 cells [2] (setting [7]), greater than 100 µM; in experiment [3] it was 39.6 µM and 39.4 µM; in experiment [3] (listed as Comp. 2), 39.6 ± 4.1 µM; on mushroom tyrosinase, greater than 100 µM. Further, the “DPPH radical scavenging activity (in words)” value in experiment [3] is “excellent antioxidant activity”.
